From patent US12202818B2, “Compounds and methods for CD73 modulation and indications therefor” (Opna Bio SA, priority 2020, dated 2025)

How the values were obtained:
[1] = biological target: T1, Human CD73 (amino acid residues 27-549) (Homo sapiens, UniProt P21589); experiment: CD73 enzymatic assay (luciferase-based indirect assay, CellTiter-Glo); type: biochemical; conditions: 0.4 nM CD73, 150 μM AMP, 1 hour at room temperature
T1 construct: Human CD73 (amino acid residues 27-549); His tag (N); made in house; host or cells: E. coli
T1 sequence (P21589 27-549): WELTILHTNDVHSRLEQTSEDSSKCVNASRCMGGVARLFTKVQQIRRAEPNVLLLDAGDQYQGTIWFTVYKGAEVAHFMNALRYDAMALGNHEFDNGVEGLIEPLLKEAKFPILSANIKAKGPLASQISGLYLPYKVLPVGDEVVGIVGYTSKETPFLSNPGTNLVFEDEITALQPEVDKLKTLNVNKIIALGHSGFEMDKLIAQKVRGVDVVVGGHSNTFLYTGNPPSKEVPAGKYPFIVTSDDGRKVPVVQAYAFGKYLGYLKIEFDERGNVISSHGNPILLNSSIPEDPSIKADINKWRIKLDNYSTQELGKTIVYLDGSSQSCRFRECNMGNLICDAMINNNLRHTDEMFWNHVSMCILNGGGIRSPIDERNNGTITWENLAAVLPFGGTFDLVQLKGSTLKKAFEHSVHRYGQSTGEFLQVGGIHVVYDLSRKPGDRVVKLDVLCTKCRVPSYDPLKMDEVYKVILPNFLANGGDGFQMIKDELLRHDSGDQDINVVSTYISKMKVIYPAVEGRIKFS
Outline: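 Luciferase-coupled readout: AMP left after CD73 turnover suppresses CellTiter-Glo signal (1 μM ATP final, 30 min RT). Reaction beforehand: 150 μM AMP, 0.4 nM E. coli-made His-tagged CD73 residues 27-549, test compound, HEPES pH 7.4 with Tween-20, 1 h RT. % inhibition fitted nonlinearly for IC50.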

human CD73 = biological target: T2, human CD73 (Homo sapiens, UniProt P21589); experiment: Inhibitor activity against CD73 in cell based assay (CD73 expressing CHO-K1 cells); conditions: CHO-K1 cells expressing human CD73, 150 μM AMP, 4 hours of incubation; read-out: CHO-K1 CELL_VARIANT: CD73 IC50
T2 construct: expressed in transfected cells
T2 sequence (P21589 27-549): T1 sequence (P21589 27-549)
Outline: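 AMP (150 μM) was added alongside 8 titrated compound doses (maximum 10 μM, 1:3 steps) to CHO-K1 cells stably expressing human CD73. After 4 h, supernatant AMP was measured indirectly with CellTiter-Glo 2.0 plus 1 μM ATP (30 min, RT). % inhibition versus high and low controls was fitted nonlinearly for IC50.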

| IC50 [1] | IC50 (human CD73) | SMILES |
| --- | --- | --- |
| 0.001 to 10 µM | 0.001 to 10 µM | O=c1[nH]ncc(N2CC[C@@H](Oc3cc(C4=CCCCC4)ccn3)C2)c1Cl [P-0116, (R)-4-chloro-5-(3-((4-(cyclohex-1-en-1-yl)pyridin-2-yl)oxy)pyrrolidin-1-yl)pyridazin-3(2H)-one] |
| 0.001 to 10 µM | 0.001 to 10 µM | Cc1nn(C)c(C)c1-c1cc(O[C@@H]2CCN(c3cn[nH]c(=O)c3Cl)C2)c(F)cn1 [P-0117, (R)-4-chloro-5-(3-((5-fluoro-2-(1,3,5-trimethyl-1H-pyrazol-4-yl)pyridin-4-yl)oxy)pyrrolidin-1-yl)pyridazin-3(2H)-one] |
| 0.001 to 10 µM | 0.001 to 10 µM | Cc1noc(C)c1-c1cc(O[C@@H]2CCN(c3cn[nH]c(=O)c3Cl)C2)c(F)cn1 [P-0118, (R)-4-chloro-5-(3-((2-(3,5-dimethylisoxazol-4-yl)-5-fluoropyridin-4-yl)oxy)pyrrolidin-1-yl)pyridazin-3(2H)-one] |
| 0.001 to 10 µM | 0.001 to 10 µM | Cc1nn(C)c(C)c1-c1cc(O[C@H]2CN(c3cnn(CCO)c(=O)c3Cl)C[C@@H]2F)ccn1 [P-0119, 4-chloro-5-((3S,4S)-3-fluoro-4-((2-(1,3,5-trimethyl-1H-pyrazol-4-yl)pyridin-4-yl)oxy)pyrrolidin-1-yl)-2-(2-hydroxyethyl)pyridazin-3(2H)-one] |
| 0.001 to 10 µM | 0.001 to 10 µM | Cc1noc(C)c1-c1cc(O[C@H]2CN(c3cnn(CCO)c(=O)c3Cl)C[C@@H]2F)ccn1 [P-0120, 4-chloro-5-((3S,4S)-3-((2-(3,5-dimethylisoxazol-4-yl)pyridin-4-yl)oxy)-4-fluoropyrrolidin-1-yl)-2-(2-hydroxyethyl)pyridazin-3(2H)-one] |
| 0.001 to 10 µM | 0.001 to 10 µM | Cc1nn(C)c(C)c1-c1cc(O[C@H]2CN(c3cn[nH]c(=O)c3Cl)C[C@@H]2F)ccn1 [P-0121, 4-chloro-5-((3S,4S)-3-fluoro-4-((2-(1,3,5-trimethyl-1H-pyrazol-4-yl)pyridin-4-yl)oxy)pyrrolidin-1-yl)pyridazin-3(2H)-one] |
| 0.001 to 10 µM | 0.001 to 10 µM | Cc1noc(C)c1-c1cc(O[C@H]2CN(c3cn[nH]c(=O)c3Cl)C[C@@H]2F)ccn1 [P-0122, 4-chloro-5-((3S,4S)-3-((2-(3,5-dimethylisoxazol-4-yl)pyridin-4-yl)oxy)-4-fluoropyrrolidin-1-yl)pyridazin-3(2H)-one] |
| 0.001 to 10 µM | 0.001 to 10 µM | Cc1noc(C)c1-c1cc(F)nc(O[C@@H]2CCN(c3cnn(CCO)c(=O)c3Cl)C2)c1 [P-0123, (R)-4-chloro-5-(3-((4-(3,5-dimethylisoxazol-4-yl)-6-fluoropyridin-2-yl)oxy)pyrrolidin-1-yl)-2-(2-hydroxyethyl)pyridazin-3(2H)-one] |
| 0.001 to 10 µM | 0.001 to 10 µM | COCc1noc(C)c1-c1cc(O[C@@H]2CCN(c3cnn(CCO)c(=O)c3Cl)C2)ncn1 [P-0124, (R)-4-chloro-2-(2-hydroxyethyl)-5-(3-((6-(3-(methoxymethyl)-5-methylisoxazol-4-yl)pyrimidin-4-yl)oxy)pyrrolidin-1-yl)pyridazin-3(2H)-one] |
| 0.001 to 10 µM | 0.001 to 10 µM | COCc1noc(C)c1-c1cc(O[C@@H]2CCN(c3cn[nH]c(=O)c3Cl)C2)ncn1 [P-0125, (R)-4-chloro-5-(3-((6-(3-(methoxymethyl)-5-methylisoxazol-4-yl)pyrimidin-4-yl)oxy)pyrrolidin-1-yl)pyridazin-3(2H)-one] |
| 0.001 to 10 µM | 0.001 to 10 µM | Cc1nn(C)c(C)c1-c1ccnc(O[C@@H]2CCN(c3cnn(CC(C)O)c(=O)c3Cl)C2)c1 (stereo partly drawn) [P-0126, 4-chloro-2-(2-hydroxypropyl)-5-((R)-3-((4-(1,3,5-trimethyl-1H-pyrazol-4-yl)pyridin-2-yl)oxy)pyrrolidin-1-yl)pyridazin-3(2H)-one] |
| 0.001 to 10 µM | 0.001 to 10 µM | Cc1nn(C)c(C)c1-c1ccnc(O[C@@H]2CCN(c3cnn(CCCO)c(=O)c3Cl)C2)c1 [P-0127, (R)-4-chloro-2-(3-hydroxypropyl)-5-(3-((4-(1,3,5-trimethyl-1H-pyrazol-4-yl)pyridin-2-yl)oxy)pyrrolidin-1-yl)pyridazin-3(2H)-one] |
| 0.001 to 10 µM | 0.001 to 10 µM | Cc1nn(C)c(C)c1-c1cc(O[C@@H]2CCN(c3cnn(CCO)c(=O)c3Cl)C2)ncn1 [P-0128, (R)-4-chloro-2-(2-hydroxyethyl)-5-(3-((6-(1,3,5-trimethyl-1H-pyrazol-4-yl)pyrimidin-4-yl)oxy)pyrrolidin-1-yl)pyridazin-3(2H)-one] |
| 0.001 to 10 µM | 0.001 to 10 µM | Cc1noc(C)c1-c1cc(O[C@H]2CN(c3cnn(CC(O)CO)c(=O)c3Cl)C[C@@H]2F)ncc1F (stereo partly drawn) [P-0129, 4-chloro-2-(2,3-dihydroxypropyl)-5-((3S,4S)-3-((4-(3,5-dimethylisoxazol-4-yl)-5-fluoropyridin-2-yl)oxy)-4-fluoropyrrolidin-1-yl)pyridazin-3(2H)-one] |
| 0.001 to 10 µM | 0.001 to 10 µM | Cc1nn(CC2(F)COC2)c(C)c1-c1ccnc(O[C@@H]2CCN(c3cn[nH]c(=O)c3Cl)C2)c1 [P-0130, (R)-4-chloro-5-(3-((4-(1-((3-fluorooxetan-3-yl)methyl)-3,5-dimethyl-1H-pyrazol-4-yl)pyridin-2-yl)oxy)pyrrolidin-1-yl)pyridazin-3(2H)-one] |
| 0.001 to 10 µM | 0.001 to 10 µM | Cc1nn(C)c(C)c1-c1ccnc(O[C@@H]2CCN(c3cnn(CC(O)CO)c(=O)c3Cl)C2)c1 (stereo partly drawn) [P-0131, 4-chloro-2-(2,3-dihydroxypropyl)-5-((R)-3-((4-(1,3,5-trimethyl-1H-pyrazol-4-yl)pyridin-2-yl)oxy)pyrrolidin-1-yl)pyridazin-3(2H)-one] |
| 0.001 to 10 µM | 0.001 to 10 µM | Cc1noc(C)c1-c1cc(O[C@H]2CN(c3cnn(CCO)c(=O)c3Cl)C[C@@H]2F)ncc1F [P-0132, 4-chloro-5-((3S,4S)-3-((4-(3,5-dimethylisoxazol-4-yl)-5-fluoropyridin-2-yl)oxy)-4-fluoropyrrolidin-1-yl)-2-(2-hydroxyethyl)pyridazin-3(2H)-one] |
| 0.001 to 10 µM | 0.001 to 10 µM | Cc1nn(CC2(F)COC2)c(C)c1-c1cc(F)nc(O[C@@H]2CCN(c3cn[nH]c(=O)c3Cl)C2)c1 [P-0133, (R)-4-chloro-5-(3-((6-fluoro-4-(1-((3-fluorooxetan-3-yl)methyl)-3,5-dimethyl-1H-pyrazol-4-yl)pyridin-2-yl)oxy)pyrrolidin-1-yl)pyridazin-3(2H)-one] |
| 0.001 to 10 µM | 0.001 to 10 µM | Cc1noc(C)c1-c1cc(O[C@H]2CN(c3cn[nH]c(=O)c3Cl)C[C@@H]2F)ncc1F [P-0134, 4-chloro-5-((3S,4S)-3-((4-(3,5-dimethylisoxazol-4-yl)-5-fluoropyridin-2-yl)oxy)-4-fluoropyrrolidin-1-yl)pyridazin-3(2H)-one] |
| 0.001 to 10 µM | 0.001 to 10 µM | Cc1nn(C)c(C)c1-c1cc(O[C@@H]2CCN(c3cnn(CCO)c(=O)c3Cl)C2)ccn1 [P-0135, (R)-4-chloro-2-(2-hydroxyethyl)-5-(3-((2-(1,3,5-trimethyl-1H-pyrazol-4-yl)pyridin-4-yl)oxy)pyrrolidin-1-yl)pyridazin-3(2H)-one] |
| 0.001 to 10 µM | 0.001 to 10 µM | Cc1noc(C)c1-c1cc(O[C@@H]2CCN(c3cnn(CCO)c(=O)c3Cl)C2)ccn1 [P-0136, (R)-4-chloro-5-(3-((2-(3,5-dimethylisoxazol-4-yl)pyridin-4-yl)oxy)pyrrolidin-1-yl)-2-(2-hydroxyethyl)pyridazin-3(2H)-one] |
| 0.001 to 10 µM | 0.001 to 10 µM | Cc1nn(C)c(C)c1-c1cc(O[C@@H]2CCN(c3cn[nH]c(=O)c3Cl)C2)ccn1 [P-0137, (R)-4-chloro-5-(3-((2-(1,3,5-trimethyl-1H-pyrazol-4-yl)pyridin-4-yl)oxy)pyrrolidin-1-yl)pyridazin-3(2H)-one] |
| 0.001 to 10 µM | 0.001 to 10 µM | Cc1noc(C)c1-c1cc(O[C@@H]2CCN(c3cn[nH]c(=O)c3Cl)C2)ccn1 [P-0138, (R)-4-chloro-5-(3-((2-(3,5-dimethylisoxazol-4-yl)pyridin-4-yl)oxy)pyrrolidin-1-yl)pyridazin-3(2H)-one] |
| 0.001 to 10 µM | 0.001 to 10 µM | Cc1noc(C)c1-c1cc(O[C@@H]2CCN(c3cnn(CCCO)c(=O)c3Cl)C2)ncn1 [P-0139, (R)-4-chloro-5-(3-((6-(3,5-dimethylisoxazol-4-yl)pyrimidin-4-yl)oxy)pyrrolidin-1-yl)-2-(3-hydroxypropyl)pyridazin-3(2H)-one] |
| 0.001 to 10 µM | 0.001 to 10 µM | Cc1noc(C)c1-c1cc(O[C@@H]2CCN(c3cnn(CC(O)CO)c(=O)c3Cl)C2)ncn1 (stereo partly drawn) [P-0140, 4-chloro-2-(2,3-dihydroxypropyl)-5-((R)-3-((6-(3,5-dimethylisoxazol-4-yl)pyrimidin-4-yl)oxy)pyrrolidin-1-yl)pyridazin-3(2H)-one] |
